Assay results taken from patent publication US20190031665A1, “DERIVATIVES OF PYRROLOIMIDAZOLE OR ANALOGUES THEREOF WHICH ARE USEFUL FOR THE TREATMENT OF INTER ALIA CANCER” (EMCURE PHARMACEUTICALS LIMITED, priority 2016, published 2019).

Assays:
[1] = target: T1, human indoleamine 2,3-dioxygenase 1 (hIDO1) (Homo sapiens, UniProt P14902); test: In-vitro human indoleamine 2,3-dioxygenase 1 (IDO1) enzyme assay; type: biochemical; conditions: for inhibition at 1 µM: hIDO1 enzyme at 1.0 μM concentration; for inhibition at 10 µM: hIDO1 enzyme at 10.0 μM concentration; for IC50: hIDO1 enzyme
T1 construct: His tag (N); purchased BPS Bioscience, San Diego, Calif., USA; host or cells: E. coli
Experimental: (§1) In-vitro human indoleamine 2,3-dioxygenase 1 (IDO1) enzyme assay: In the in-vitro human indoleamine 2,3-dioxygenase 1 (hIDO1) enzyme assay for screening inhibitor compounds, hIDO1 with an N-terminal histidine tag expressed and purified from E. coli (BPS Bioscience, San Diego, Calif., USA) was used. All other materials were procured from Sigma-Aldrich, St. Louis, Mo., USA.
The assay method for monitoring the conversion of L-tryptophan to N-formylkynurenine by hlDO1 was carried out as follows. hlDO1 (50 ng) was incubated with tryptophan (80 μM) in the presence of ascorbic acid (10 mM), methylene blue (10 μM), catalase (100 μg/ml) and 0.01% Tween-20 in sodium phosphate buffer (50 mM; pH 6.5) at 37° C. for 60 min. The reaction was terminated with 200 mM piperidine (PIP) and further incubated at about 65° C. for about 20 minutes to convert N-formylkynurenine (NFK) to NFK-PIP. The reaction mixture was then incubated at room temperature for about 1 hour. The fluorescence intensity was read in a fluorescence microplate reader at an excitation wavelength of 400 nm and emission wavelength of 500 nm. Percent inhibition at each concentration of test compounds was determined by estimating the decrease in NFK-PIP. Data were analyzed using nonlinear regression to generate IC50 values using Graph Pad Prism® 6.

[2] = target: T2, human tryptophan 2,3-dioxygenase (hTDO) (Homo sapiens, UniProt P48775); test: In-vitro human tryptophan 2,3-dioxygenase (TDO) enzyme assay; type: biochemical; conditions: for inhibition at 1 µM: hTDO enzyme at 1.0 μM concentration; for inhibition at 10 µM: hTDO enzyme at 10.0 μM concentration
T2 construct: His tag (N); purchased BPS Bioscience, San Diego, Calif., USA; host or cells: E. coli
Experimental: as §1, with “In” for “In-vitro human indoleamine 2,3-dioxygenase 1 (IDO1) enzyme assay: In”, “tryptophan” for “indoleamine”, “(hTDO)” for “1 (hIDO1)”, “hTDO” for “hIDO1”
The assay monitoring method for the conversion of L-tryptophan to N-formylkynurenine by hTDO was carried out as follows. hTDO (125 ng) was incubated in the presence of 200 μM L-tryptophan, 100 mM sodium phosphate buffer (pH 7.0), 0.01% Tween-20 and 100 μM ascorbic acid at about 37° C. for about 60 minutes. The reaction was terminated with 200 mM piperidine (PIP) and further incubated at about 65° C. for about 20 minutes to convert N-formylkynurenine (NFK) to NFK-PIP. The reaction mixture was then incubated at room temperature for about 75 minutes. The fluorescence intensity was read in a fluorescence microplate reader at an excitation wavelength of 400 nm and emission wavelength of 500 nm. Percent inhibition at each concentration of test compounds was determined by estimating the decrease in NFK-PIP. Data were analyzed using nonlinear regression to generate IC50 values using Graph Pad Prism® 6.

T2 sequence (P48775 whole entry): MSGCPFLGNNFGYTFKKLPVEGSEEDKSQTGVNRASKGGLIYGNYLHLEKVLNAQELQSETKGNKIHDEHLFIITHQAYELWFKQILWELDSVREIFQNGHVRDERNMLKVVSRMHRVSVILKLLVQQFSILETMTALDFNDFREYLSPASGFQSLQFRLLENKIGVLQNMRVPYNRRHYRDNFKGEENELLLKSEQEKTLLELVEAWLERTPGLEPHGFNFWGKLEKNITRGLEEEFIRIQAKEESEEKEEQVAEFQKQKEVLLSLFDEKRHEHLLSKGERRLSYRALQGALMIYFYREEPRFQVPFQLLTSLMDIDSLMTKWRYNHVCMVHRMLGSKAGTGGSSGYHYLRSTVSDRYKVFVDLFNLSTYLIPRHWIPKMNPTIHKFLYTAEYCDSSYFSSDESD
T1 sequence (P14902 whole entry): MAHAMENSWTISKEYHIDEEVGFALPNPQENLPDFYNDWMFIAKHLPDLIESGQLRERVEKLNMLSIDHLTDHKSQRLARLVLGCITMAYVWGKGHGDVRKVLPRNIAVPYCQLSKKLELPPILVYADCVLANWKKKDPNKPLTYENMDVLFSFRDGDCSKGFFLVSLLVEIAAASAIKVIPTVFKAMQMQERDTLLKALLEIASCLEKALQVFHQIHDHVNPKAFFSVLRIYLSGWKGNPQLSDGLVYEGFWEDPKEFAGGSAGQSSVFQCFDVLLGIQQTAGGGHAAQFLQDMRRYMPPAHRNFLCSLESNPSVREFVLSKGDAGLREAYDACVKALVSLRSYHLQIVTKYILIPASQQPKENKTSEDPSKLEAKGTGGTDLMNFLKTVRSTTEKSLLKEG

SMILES	inhibition at 1 µM [1] [%]	inhibition at 10 µM [1] [%]	inhibition at 1 µM [2] [%]	inhibition at 10 µM [2] [%]	IC50 [1] [nM]
CC1=C(c2ccccc2)C(C[C@H](O)C2CCC(C(=O)Nc3ccc(Cl)cc3C)CC2)n2cncc21 (stereo partly shown) [Example 120]	≥ 50	≥ 50	≥ 50		< 500
OC(CC1C2=C(CCCC2)c2cncn21)c1cccc(OCc2ccccc2)c1 (stereo not shown) [Example 8]		≤ 50		≥ 50	
OC(CC1C2=C(CCCC2)c2cncn21)c1cc(F)ccc1F (stereo not shown) [Example 10]		≤ 50		≥ 50	
CC1=C(c2ccccc2)C(CC(=O)c2ccc(C(=O)Nc3ccc(F)cc3F)cc2)n2cncc21 (stereo not shown) [Example 81]	≥ 50	≥ 50	≥ 50		< 500
CC1=C(c2cccc(Cl)c2)C(CC(=O)C2CCCCC2)n2cncc21 (stereo not shown) [Example 95]	≤ 50	≥ 50	≤ 50		
CC1=C(c2ccccc2)C(CC(O)C2CCN(C(=O)NC3CCCCC3)CC2)n2cncc21 (stereo not shown) [Example 179]	≥ 50	≥ 50	≤ 50		< 500
COC(=O)c1ccc(C(=O)CC2C(c3ccccc3)=C(C)c3cncn32)cc1 (stereo not shown) [Example 18, 4-[2-(7-Methyl-6-phenyl-5H-pyrrolo[1,2-c]imidazol-5-yl)-acetyl]-benzoic acid methyl ester]	≥ 50	≥ 50	≥ 50	≥ 50	< 500
CC1=C(c2ccccc2)C(CC(=O)c2ccc(C(=O)Nc3ccc(C)cc3C)cc2)n2cncc21 (stereo not shown) [Example 84]	≥ 50	≥ 50	≥ 50		
CC1=C(c2ccccc2)C(CC(O)C2CCC(O)CC2)n2cncc21 (stereo not shown) [Example 127]	≥ 50		≥ 50		
CC1=C(c2ccccc2)C(CC(=O)c2ccc(N(C)C)cc2)n2cncc21 (stereo not shown) [Example 46, 1-(4-(dimethylamino)phenyl)-2-(7-methyl-6-phenyl-5H-pyrrolo[1,2-c]imidazol-5-yl)ethan-1-one]	≤ 50	≥ 50	≥ 50		
COC(=O)c1cccc(C(=O)CC2C(c3ccccc3)=C(C)c3cncn32)c1 (stereo not shown) [Example 23, 3-[2-(7-Methyl-6-phenyl-5H-pyrrolo[1,2-c]imidazol-5-yl)-acetyl]-benzoic acid methyl ester]	≤ 50	≥ 50	≥ 50	≥ 50	
CC1=C(c2ccccc2)C(CC(=O)C2CCC(C(=O)NC3CCCCC3)CC2)n2cncc21 (stereo not shown) [Example 123]	≤ 50	≥ 50	≥ 50		
CC(C)C1=C(c2ccccc2)C(CC(=O)C2CCCCC2)n2cncc21 (stereo not shown) [Example 106]	≤ 50	≤ 50	≤ 50		
CC1=C(c2ccccc2)C(CC(=O)c2ccc(-c3ccc(C(F)(F)F)cc3)cc2)n2cncc21 (stereo not shown) [Example 61]	≤ 50	≥ 50	≤ 50		
CC1=C(c2ccccc2)C(CC(=O)c2ccc(-c3ccccc3F)cc2)n2cncc21 (stereo not shown) [Example 58]	≥ 50	≥ 50	≤ 50		< 500
CC1=C(c2ccccc2)C(CC(O)c2ccc(Br)cc2)n2cncc21 (stereo not shown) [Example 52, 1-(4-bromophenyl)-2-(7-methyl-6-phenyl-5H-pyrrolo[1,2-c]imidazol-5-yl)ethan-1-ol]	≤ 50	≥ 50	≥ 50		
CC1=C(c2ccccc2)C(CC(=O)c2ccc(Oc3ccccc3F)cc2)n2cncc21 (stereo not shown) [Example 76, 1-(4-(2-fluorophenoxy)phenyl)-2-(7-methyl-6-phenyl-5H-pyrrolo[1,2-c]imidazol-5-yl)ethan-1-one]	≥ 50	≥ 50	≤ 50		< 500
CC1=C(c2cccc(Cl)c2)C(CC(O)C2CCCCC2)n2cncc21 (stereo not shown) [Example 96]	≤ 50	≥ 50	≤ 50		
CC1=C(c2ccccc2)C(CC(O)c2ccc(C3CCCCC3)cc2)n2cncc21 (stereo not shown) [Example 74]	≤ 50	≥ 50	≤ 50		
CC1=C(c2ccccc2F)C(CC(=O)C2CCCCC2)n2cncc21 (stereo not shown) [Example 101]	≤ 50	≥ 50	≥ 50		

The remaining lines, values ahead:

inhibition at 1 µM [1] [%]	inhibition at 10 µM [1] [%]	inhibition at 1 µM [2] [%]	inhibition at 10 µM [2] [%]	IC50 [1] [nM]	SMILES
≥ 50	≥ 50	≥ 50	≥ 50		CC1=C(c2ccccc2)C(CC(=O)c2ccc(F)cc2)n2cncc21 (stereo not shown) [Example 34, 1-(4-fluorophenyl)-2-(7-methyl-6-phenyl-5H-pyrrolo[1,2-c]imidazol-5-yl)ethan-1-one]
≤ 50	≥ 50	≥ 50			CC1=C(c2ccccc2)C(CC(=O)C2CCN(S(=O)(=O)c3ccccc3)CC2)n2cncc21 (stereo not shown) [Example 143]
≥ 50	≥ 50	≥ 50		< 500	CC1=C(c2ccccc2)C(CC(=O)c2ccc(Cl)cc2)n2cncc21 (stereo not shown) [Example 38, 1-(4-chlorophenyl)-2-(7-methyl-6-phenyl-5H-pyrrolo[1,2-c]imidazol-5-yl)ethan-1-one]
≥ 50	≥ 50	≥ 50	≥ 50	< 500	CC1=C(c2ccccc2)C(CC(=O)c2ccc3ccccc3c2)n2cncc21 (stereo not shown) [Example 25, 2-(7-Methyl-6-phenyl-5H-pyrrolo[1,2-c]imidazol-5-yl)-1-naphthalen-2-yl-ethanone]
≥ 50	≥ 50	≥ 50		< 500	CC1=C(c2ccccc2)C(C[C@H](O)C2CCC(C(=O)Nc3ccccc3)CC2)n2cncc21 (stereo partly shown) [Example 112]
≤ 50	≥ 50	≥ 50	≥ 50		CC1=C(c2ccccc2)C(CC(=O)c2ccc(C)cc2)n2cncc21 (stereo not shown) [Example 27, 2-(7-Methyl-6-phenyl-5H-pyrrolo[1,2-c]imidazol-5-yl)-1-p-tolyl-ethanone]
≤ 50	≥ 50	≥ 50	≥ 50		CC1=C(c2ccccc2)C(CC(=O)c2ccc(C(=O)O)cc2)n2cncc21 (stereo not shown) [Example 24, 4-[2-(7-Methyl-6-phenyl-5H-pyrrolo[1,2-c]imidazol-5-yl)-acetyl]-benzoic acid]
≤ 50	≥ 50	≥ 50			CC1=C(c2ccccc2)C(CC(=O)c2ccc(N3CCOCC3)cc2)n2cncc21 (stereo not shown) [Example 49, 2-(7-methyl-6-phenyl-5H-pyrrolo[1,2-c]imidazol-5-yl)-1-(4-morpholinophenyl)ethan-1-one]
≥ 50	≥ 50	≥ 50		< 500	CC1=C(c2ccccc2)C(CC(=O)c2ccc(OCc3ccccc3)cc2)n2cncc21 (stereo not shown) [Example 75, 1-(4-(benzyloxy)phenyl)-2-(7-methyl-6-phenyl-5H-pyrrolo[1,2-c]imidazol-5-yl)ethan-1-one]
≤ 50	≥ 50	≥ 50			CC1=C(c2ccccc2)C(CC(=O)C2CCC(O)CC2)n2cncc21 (stereo not shown) [Example 99]
≤ 50	≤ 50	≤ 50			OC(CC1C(c2ccccc2)=C(c2ccccc2)c2cncn21)C1CCCCC1 (stereo not shown) [Example 103]
≤ 50	≥ 50	≥ 50			CC1=C(c2ccccc2)C(CC(=O)C2CCC(=NO)CC2)n2cncc21 (stereo not shown) [Example 177, 4-[2-(7-Methyl-6-phenyl-5H-pyrrolo[1,2-c]imidazol-5-yl)-acetyl]-cyclohexanone oxime]
